Measurements as given in US20250346579A1, “PYRIDAZINONE COMPOUND AND PREPARATION METHOD THEREFOR, PHARMACEUTICAL COMPOSITION THEREOF, AND APPLICATION THEREOF” (CHINA PHARMACEUTICAL UNIVERSITY, priority 2021, published 2025).
Read-outs that look alike come from different tables or passages of the source. One block for each compound: values may come before it.

Columns and labels:
PARP7 = target: T1, PARP7 (Homo sapiens, UniProt Q7Z3E1); experiment: Inhibitory activity of compounds on PARP7 enzyme (PARP7 Chemiluminescent Assay Kit); format: biochemical
T1 construct: purchased BPS Bioscience
T1 sequence (Q7Z3E1 1-657): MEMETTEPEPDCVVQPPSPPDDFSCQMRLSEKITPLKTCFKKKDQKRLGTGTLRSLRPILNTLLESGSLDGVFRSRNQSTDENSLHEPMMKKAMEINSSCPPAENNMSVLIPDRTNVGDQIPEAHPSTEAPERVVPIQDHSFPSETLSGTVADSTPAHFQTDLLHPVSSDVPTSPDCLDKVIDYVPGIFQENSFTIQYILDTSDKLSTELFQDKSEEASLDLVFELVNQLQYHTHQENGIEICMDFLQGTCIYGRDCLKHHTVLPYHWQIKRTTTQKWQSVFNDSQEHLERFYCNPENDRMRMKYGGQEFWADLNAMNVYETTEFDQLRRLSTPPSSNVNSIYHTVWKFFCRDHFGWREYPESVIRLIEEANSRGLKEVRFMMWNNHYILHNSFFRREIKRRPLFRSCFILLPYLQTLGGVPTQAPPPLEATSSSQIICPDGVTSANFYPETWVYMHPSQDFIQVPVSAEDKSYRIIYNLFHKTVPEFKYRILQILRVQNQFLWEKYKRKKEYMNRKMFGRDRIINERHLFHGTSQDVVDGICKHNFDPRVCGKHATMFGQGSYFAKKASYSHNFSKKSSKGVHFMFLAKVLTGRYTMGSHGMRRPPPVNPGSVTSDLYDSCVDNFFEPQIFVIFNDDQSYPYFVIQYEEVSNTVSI
Description: Experimental materials: PARP7 Chemiluminescent Assay Kit, BPS Bioscience; DMSO, China National Pharmaceutical Group, Nivo, PerkinElmer.
(1) Preparation of Solutions and Buffers:
Preparation of 10×PBS: 720 mg of KH2PO4, 45 g of NaCl and 5.311 g of Na2HPO4·12H2O were weighed respectively and dissolved in 500 mL of deionized water, a system pH value was adjusted to 7.4, sterilization was performed at 121° C. for 30 min, and the system after cooling was placed at 4° C. for later use.
Preparation of 1×PBS: 10×PBS was diluted 10 times with deionized water, that is, 9 parts of deionized water was added to 1 part of 10×PBS for dilution.
Preparation of wash buffer: 1×PBS contained 0.05% Tween-20.
Preparation of 1×PARP buffer (prepared freshly before use): 10×PARP buffer was diluted 10 times with deionized water and placed on ice for later use.
(2) Preparation of Compound Working Solution Concentration:
According to test requirements, a compound to be tested is diluted with 100% DMSO to a desired concentration, and then diluted 10 times with 1×PARP buffer to prepare a 10× compound working solution.
a. 5× histone mixture was thawed on ice one day prior to the experiment;
b. preparation of 1× histone mixture: 1× histone mixture was prepared through the 5× histone mixture by using 1×PBS; and 25 μL of 1× histone mixture was taken from each well and transferred into a test well plate and incubated overnight at 4° C.;
c. 100 μL of Blocking buffer was taken from each well and added to the test well plate and incubated for 90 min at 25° C.;
d. after the incubation was completed, the liquid in the test well plate was spin-dried, and the test well plate was washed repeatedly for 3 times;
e. 2.5 μL of the compound working solution was taken from each well and added to the test well plate according to an experimental layout diagram; and 1×PARP buffer with a corresponding volume of 10% DMSO was added to positive control wells (Positive Control), and 1×PARP buffer of a corresponding volume was added to blank control wells (Blank);
f. after the enzyme was completely dissolved, an enzyme stock solution was diluted with 1×PARP buffer to 6 ng/μL;
g. 10 μL of enzyme solution was taken from each well and added to the test well plate, the blank control wells were added with the corresponding volume of 1×PARP buffer, and in which case, the enzyme amount was 60 ng per well. Note: this step needs to be performed on ice;
h. 12.5 μL of master mixture was added to each well of the test well plate (12.5 μL master mixture included 1.25 μL of 10×PARP buffer, 1.25 μL of Opti-PARP 10× Assay mixture and 10 μL of water); the test well plate was sealed and incubated at 25° C. for 60 min;
i. after the incubation was completed, the liquid in the test well plate was spin-dried, and the test well plate was washed repeatedly for 3 times;
j. Streptavidin-HRP in a kit was diluted 50 times with a Blocking buffer, 25 μL was taken from each well and added to the test well plate, and incubated at 25° C. for 30 min;
k. after the incubation was completed, the liquid in the test well plate was spin-dried, and the test well plate was washed repeatedly for 3 times;
l. ELISA ECL Substrate A and ELISA ECL Substrate B in the kit was mixed to obtain a mixed solution according to a ratio of 1:1, 50 μL of the mixed solution was added to each well of the test well plate, Nivo was used to perform Luminescence detection immediately, and a luminous value (RLU) was read; and
m. calculation of an enzyme rate: Enzyme Activity=(RLU(Sample)−RLU(Blank))/(RLU(Pos.Ctrl)−RLU(Blank))×100%; and enzyme inhibition rate=1−% Enzyme Activity, and specific results were shown in Table 1 below.

CT26 cells = experiment: In vivo pharmacodynamic study, CT26 subcutaneous tumors in BALB/c mice
Description: BALB/c mice were subcutaneously inoculated with CT26 cells in the right abdominal skin to develop tumors. Four days after tumor inoculation, 24 mice having a tumor size ranging from 55-75 mm^3 (with an average tumor size of 63 mm^3) were selected and randomly divided into 4 groups based on their tumor volumes, with 6 mice in each group. Drug administration was started on the day following random grouping (the day of random grouping was identified as Day 0), a carrier (0.5% of methyl cellulose+0.2% of Tween 80), Compound RBN-2397 (500 mg/kg, once a day, intragastric administration for 14 consecutive days), Compound I-A-1 (100 mg/kg, once a day, intragastric administration for 14 consecutive days), Compound I-A-1 (50 mg/kg, twice a day, intragastric administration for 14 consecutive days) were administered respectively, and the tumor size was measured three times per week during an administration period.

[1] = Pharmacokinetic study in SD rats; format: in vivo
Description: (§1) Experimental process: 12 male SD rats were selected, 6 of the rats were orally administrated (3 of them were administered with RBN-2397, and the remaining 3 were administered with I-A-1, at a dose of 10 mg/kg), 6 of the rats were administered intravenously (3 of them were administered with RBN-2397, and the remaining 3 were administered with I-A-1, at a dose of 1 mg/kg), blood samples were collected at 0 min, 2 min, 5 min, 10 min, 20 min, 30 min, 60 min, 2 h, 4 h, 6 h, and 8 h, respectively, and then centrifuged (at 3000 rpm for 5 min), a supernatant was collected and analyzed by LC-MS-MS, and results were analyzed by using WinNonlin Software.

[2] = Pharmacokinetic study in ICR mice; format: in vivo
Description: as §1, with “ICR mice” for “SD rats”

[3] = chemiluminescence, symbols defined as IC50 classes, read-out: 100 nM Inhibition Rate
[4] = summary of Table 1, read-out: enzyme inhibition IC50 values
[5] = male, rat, supernatant of centrifuged blood, IV 1 mg/kg
[6] = male, rat, supernatant of centrifuged blood, PO 10 mg/kg
[7] = male, mouse, supernatant of centrifuged blood, IV 1 mg/kg
[8] = male, mouse, supernatant of centrifuged blood, PO 10 mg/kg

SMILES: C[C@@H](CCN1CC(C(=O)N2CCN(c3ncc(C(F)(F)F)cn3)CC2)C1)Nc1cn[nH]c(=O)c1C(F)(F)F [I-A-21, (S)-4-(trifluoromethyl)-5-((4-(3-(4-(5-(trifluoromethyl)pyrimidin-2-yl)piperazine-1-carbonyl)azetidin-1-yl)butan-2-yl)amino)pyridazin-3(2H)-one]
IC50 (PARP7; [3]): 100 to 500 nM

SMILES: C[C@@H](CN1CC(C(=O)N2CCN(c3ccc(C(F)(F)F)cc3)CC2)C1)Nc1cn[nH]c(=O)c1C(F)(F)F [I-A-11]
IC50 (PARP7; [3]): 100 to 500 nM

SMILES: C[C@@H](CN1CC(C(=O)N2CCN(c3ncc(C(F)(F)F)cn3)CC2)C1)Nc1cn[nH]c(=O)c1Cl [I-A-22, (S)-4-chloro-5-((1-(3-(4-(5-(trifluoromethyl)pyrimidin-2-yl)piperazine-1-carbonyl)azetidin-1-yl)propan-2-yl)amino)pyridazin-3(2H)-one]
IC50 (PARP7; [3]): 100 to 500 nM

SMILES: C[C@@H](CN1CC(C(=O)N2CCN(c3ccc4c(c3)OC(F)(F)O4)CC2)C1)Nc1cn[nH]c(=O)c1C(F)(F)F [I-B-1, (S)-5-((1-(3-(4-(2,2-difluorobenzo[d][1,3]dioxol-5-yl)piperazine-1-carbonyl)azetidin-1-yl)propan-2-yl)amino)-4-(trifluoromethyl)pyridazin-3(2H)-one]
IC50 (PARP7; [3]): < 100 nM | IC50 (PARP7; [4]): < 100 nM

SMILES: C[C@@H](CN1CC(C(=O)N2CCN(c3ccc(C(F)(F)F)cn3)CC2)C1)Nc1cn[nH]c(=O)c1C(F)(F)F [I-A-10, (S)-4-(trifluoromethyl)-5-((1-(3-(4-(5-(trifluoromethyl)pyridin-2-yl)piperazine-1-carbonyl)azetidin-1-yl)propan-2-yl)amino)pyridazin-3(2H)-one]
IC50 (PARP7; [3]): < 100 nM

SMILES: Cc1cnc(N2CCN(C(=O)C3CN(C[C@H](C)Nc4cn[nH]c(=O)c4C(F)(F)F)C3)CC2)nc1 [I-A-6, (S)-5-((1-(3-(4-(5-methylpyrimidin-2-yl)piperazine-1-carbonyl)azetidin-1-yl)propan-2-yl)amino)-4-(trifluoromethyl)pyridazin-3(2H)-one]
IC50 (PARP7; [3]): < 100 nM

Further lines, with some results ahead:

IC50 (PARP7; [3]): < 100 nM | IC50 (PARP7; [4]): < 100 nM | CL ([1]; PO 10 mg/kg): 62.9522 mL/min/kg | F ([1]; PO 10 mg/kg): 46.8% | pharmacokinetic properties ([1]; in words): good pharmacokinetic properties | AUC [1, 5]: 548 ng·h/mL | Cmax [1, 5]: 333 ng/mL | clearance [1, 5]: 30.4 mL/min/kg | half-life [1, 5]: 1.72 h | AUC [1, 6]: 2560 ng·h/mL | Cmax [1, 6]: 564 ng/mL | half-life [1, 6]: 2.57 h | F ([2]; PO 10 mg/kg, 10 mg/kg): 95.80% | pharmacokinetic properties ([2]; in words): good pharmacokinetic properties | AUC [2, 7]: 591 ng·h/mL | Cmax [2, 7]: 419 ng/mL | clearance [2, 7]: 29 mL/min/kg | half-life [2, 7]: 1.44 h | AUC [2, 8]: 5660 ng·h/mL | Cmax [2, 8]: 2300 ng/mL | half-life [2, 8]: 1.74 h
SMILES: C[C@@H](CN1CC(C(=O)N2CCN(c3ncc(C(F)(F)F)cn3)CC2)C1)Nc1cn[nH]c(=O)c1C(F)(F)F [I-A-1, (S)-4-(trifluoromethyl)-5-((1-(3-(4-(5-(trifluoromethyl)pyrimidin-2-yl)piperazine-1-carbonyl)azetidin-1-yl)propan-2-yl)amino)pyridazin-3(2H)-one]
anti-tumor activity (CT26 cells; 100 mg/kg once a day or 50 mg/kg twice a day, intragastric, 14 days, FIG. 2): significant anti-tumor activity | anti-tumor effect compared with the positive drug RBN-2397 (CT26 cells; I-A-1 100 mg/kg/day vs RBN-2397 500 mg/kg once a day): better anti-tumor effect at a lower dose

IC50 (PARP7; [3]): < 100 nM
SMILES: C[C@@H](CN1CC(C(=O)N2CCN(c3ncc(Cl)cn3)CC2)C1)Nc1cn[nH]c(=O)c1C(F)(F)F [I-A-5, (S)-5-((1-(3-(4-(5-chloropyrimidin-2-yl)piperazine-1-carbonyl)azetidin-1-yl)propan-2-yl)amino)-4-(trifluoromethyl)pyridazin-3(2H)-one]

IC50 (PARP7; [3]): < 100 nM
SMILES: C[C@@H](CN1CC(C(=O)N2CCN(c3ncc(S(C)(=O)=O)cn3)CC2)C1)Nc1cn[nH]c(=O)c1C(F)(F)F [I-A-4, (S)-5-((1-(3-(4-(5-(methylsulfonyl)pyrimidin-2-yl)piperazine-1-carbonyl)azetidin-1-yl)propan-2-yl)amino)-4-(trifluoromethyl)pyridazin-3(2H)-one]

IC50 (PARP7; [3]): < 100 nM | IC50 (PARP7; [4]): < 100 nM
SMILES: C[C@@H](Cn1ccc(C(=O)N2CCN(c3ncc(C(F)(F)F)cn3)CC2)c1)Nc1cn[nH]c(=O)c1C(F)(F)F [I-C-1, (S)-4-(trifluoromethyl)-5-((1-(3-(4-(5-(trifluoromethyl)pyrimidin-2-yl)piperazine-1-carbonyl)-1H-pyrrol-1-yl)propan-2-yl)amino)pyridazin-3(2H)-one]

IC50 (PARP7; [3]): < 100 nM
SMILES: COc1cnc(N2CCN(C(=O)C3CN(C[C@H](C)Nc4cn[nH]c(=O)c4C(F)(F)F)C3)CC2)nc1 [I-A-9, (S)-5-((1-(3-(4-(5-methoxypyrimidin-2-yl)piperazine-1-carbonyl)azetidin-1-yl)propan-2-yl)amino)-4-(trifluoromethyl)pyridazin-3(2H)-one]
